# Assay results reported in patent publication US7846722B2 (priority 2001, dated 2010).
# System: Neuro-2A cells
# Format: cell-based, mouse
# Details: not given
row,Compound,BoNT/A SNAP25197-cleavage product (uptake of BoNT/A) after differentiation reagent treatment
1,"CC1=C(/C=C/C(C)=C/C=C/C(C)=C/C(=O)O)C(C)(C)CCC1 [all trans retinoic acid, All Trans-Retinoic acid]",increase

# Target: BoNT/A (Clostridium botulinum, UniProt P0DPI0)
# Details: cited from earlier work
# Sequence of BoNT/A (P0DPI0 whole entry, looked up): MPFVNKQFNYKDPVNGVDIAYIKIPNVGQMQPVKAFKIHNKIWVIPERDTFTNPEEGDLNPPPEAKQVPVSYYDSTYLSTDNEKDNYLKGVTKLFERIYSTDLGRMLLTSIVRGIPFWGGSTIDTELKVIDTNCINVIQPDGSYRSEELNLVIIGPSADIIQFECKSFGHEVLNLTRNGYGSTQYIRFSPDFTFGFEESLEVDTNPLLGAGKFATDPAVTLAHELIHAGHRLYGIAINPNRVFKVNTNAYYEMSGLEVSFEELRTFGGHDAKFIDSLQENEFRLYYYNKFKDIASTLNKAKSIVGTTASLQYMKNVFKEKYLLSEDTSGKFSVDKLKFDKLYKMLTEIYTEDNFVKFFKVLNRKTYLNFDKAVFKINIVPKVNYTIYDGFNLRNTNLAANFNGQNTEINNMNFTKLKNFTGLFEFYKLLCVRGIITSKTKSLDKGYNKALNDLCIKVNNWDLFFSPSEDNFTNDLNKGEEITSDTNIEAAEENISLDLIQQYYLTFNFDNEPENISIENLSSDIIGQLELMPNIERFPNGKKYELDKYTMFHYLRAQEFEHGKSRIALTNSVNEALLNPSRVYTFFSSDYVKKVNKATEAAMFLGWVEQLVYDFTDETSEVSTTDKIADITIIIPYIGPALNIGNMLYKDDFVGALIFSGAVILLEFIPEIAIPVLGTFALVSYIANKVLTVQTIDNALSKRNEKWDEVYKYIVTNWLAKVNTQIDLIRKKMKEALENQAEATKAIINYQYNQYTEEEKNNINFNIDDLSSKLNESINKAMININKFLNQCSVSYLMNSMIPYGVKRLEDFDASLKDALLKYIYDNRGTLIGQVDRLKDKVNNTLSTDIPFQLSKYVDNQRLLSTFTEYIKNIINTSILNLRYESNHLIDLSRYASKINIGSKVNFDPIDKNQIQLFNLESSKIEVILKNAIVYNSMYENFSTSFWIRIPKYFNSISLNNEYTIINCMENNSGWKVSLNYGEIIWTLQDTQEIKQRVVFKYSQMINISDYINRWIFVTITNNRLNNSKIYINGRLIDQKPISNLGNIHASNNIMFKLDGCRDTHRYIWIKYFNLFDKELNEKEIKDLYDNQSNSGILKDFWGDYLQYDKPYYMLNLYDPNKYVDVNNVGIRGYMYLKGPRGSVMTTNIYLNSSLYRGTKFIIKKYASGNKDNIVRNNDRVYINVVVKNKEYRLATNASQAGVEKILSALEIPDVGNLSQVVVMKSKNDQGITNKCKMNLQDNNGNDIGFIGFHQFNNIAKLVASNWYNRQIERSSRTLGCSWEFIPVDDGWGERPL
row,Compound,Relative Rate
1,SNKTRIDEANBRATKML [Peptide Q11B],0.25
2,SNKTRIDEANQRABKML [Peptide T14B],1.20
3,SNKTRIDEANQRATKML [[1-17]],1.00
4,SNKTRIDEANQRATKXL [Peptide M16X],1.20
5,SNKTRIDEANQRBTKML [Peptide A13B],0.79
6,SNKTRIDEBNQRATKML [Peptide A9B],0.38
